{"source": "paper PMC9157788", "about": "“Design, Synthesis, and Apoptosis-Promoting Effect Evaluation of Rhopaladins’ Analog 4-Arylidene-5-Oxopyrrolidine Derivatives” (Frontiers in Chemistry, 2022)", "key": {"C-33A cells": {"test_system": "C-33A cells", "experiment": "MTT cell viability assay, C-33A", "type": "cell-based", "conditions": "Homo sapiens, 48 h, read-out: Half inhibitory concentration (IC50), C-33A", "protocol": "(§1) HepG2 (human epidermoid hepatocellular carcinoma cell), 7402 (human epidermoid hepatocellular carcinoma cell), C-33A (human epidermoid cervical carcinoma cell), and HeLa (human epidermoid cervical adenocarcinoma cell) were incubated in Dulbecco’s modified Eagle’s medium (DMEM), which was purchased from Gibco (Grand Island, NY, United States). SiHa cells (human epidermoid cervical squamous cell carcinoma) were incubated in minimum essential medium (MEM, also from Gibco). CaSki (human epidermoid cervical carcinoma cell) and LO2 (human normal liver cell) were incubated in minimum essential medium (MEM, also from Gibco). All cells were maintained at 37°C in a humidified incubator with 5% carbon dioxide, and the media contained 10% fetal bovine serum (FBS, Corning, United States) and 1% penicillin–streptomycin antibiotic solution (Corning, United States). SiHa and CaSki were bought from the China Center for Type Culture Collection (CCTCC). The other five types of cancer cell lines were obtained from the Experiment Center of Medicine, Sinopharm Dongfeng Hospital, Hubei University of Medicine. The compounds were dissolved in dimethyl sulfoxide (DMSO, MP Biomedicals, United States), and cisplatin was purchased from Aladdin, Shanghai, China. The control (0 μM) group was treated with DMSO only in the same conditions, and the DMSO content in the medium was less than 0.1%.\n(§2) Cell viability was measured by a 3-(4,5-dimethylthiazol-2-yl)-2,5-diphenyltetrazolium bromide (MTT, MultiSciences, China) assay. The specific experimental steps referred to our previous research ([Zhu et al., 2020]). For each cell line, cells were digested and seeded in 96-well plates at a density of 1 × 10^3 cells/well. […] Then, the formed formazan crystals were dissolved in DMSO, and the plates were estimated in a […] microplate reader (BioTek Inc., Bio-Tek MQX200) at a wavelength of 490 nm. Optical density (OD) values were obtained, and the inhibition rate and IC50 of each compound on different cells were calculated by GraphPad Prism 8.0.1 software. […]"}, "CaSki cells": {"test_system": "CaSki cells", "experiment": "MTT cell viability assay, CaSki", "type": "cell-based", "conditions": "Homo sapiens, Ca-Ski, 48 h, read-out: Half inhibitory concentration (IC50), CaSki", "protocol": "as §1, §2"}, "HepG2 cells [1]": {"test_system": "HepG2 cells", "experiment": "MTT cell viability assay, HepG2", "type": "cell-based", "conditions": "Homo sapiens, 48 h, read-out: Half inhibitory concentration (IC50), HepG2", "protocol": "as §1, §2"}, "7402 cells": {"test_system": "7402 cells", "experiment": "MTT cell viability assay, 7402", "type": "cell-based", "conditions": "Homo sapiens, 48 h, read-out: Half inhibitory concentration (IC50), 7402", "protocol": "as §1, §2"}, "Bcl-2": {"test_system": "Bcl-2", "experiment": "Western blot, Bcl-2 expression in HepG2 cells", "type": "cell-based, human", "conditions": "HepG2, 25 μM, 48 h, vs DMSO control, p < 0.01", "protocol": "The experimental steps of the Western blotting assay referred to Lin’s study ([Lin et al., 2020]). After treatment with different concentrations of RPDPRH (0, 6.25, 12.5, and 25 μM) for 48 h, hepatocarcinoma cells were lysed with an ice-cold RIPA protein lysis buffer (Beyotime, China). Total cell lysates were prepared with RIPA lysis buffer containing phosphatase inhibitors (Roche, China) and protease inhibitors (MedChemExpress, United States). Total cell lysates were centrifuged at 10,000 g for 10 min at 4°C to obtain the supernatant. The protein concentration was detected according to the BCA Protein Assay Kit (Beyotime, China). Then, 5× SDS loading buffer (Beyotime, China) was added to the supernatant and boiled at 100°C for 10 min. The obtained protein samples were stored at −80°C.\nThe protein samples (20 μg) were resolved on 4% concentration glue and 12% separating glue and prepared according to the SDS-PAGE Gel Quick Preparation Kit procedure (Beyotime, China). After electrophoresis at 80 V for 1.5–2 h, the proteins were wet-transferred onto a polyvinylidene difluoride membrane (PVDF, Millipore) at 300 mA for 1–1.5 h. […]"}, "HepG2 cells [2]": {"test_system": "HepG2 cells", "experiment": "Wound healing assay, HepG2", "type": "cell-based, human", "conditions": "48 h", "protocol": "The experimental procedures were performed according to conventional methods ([Kovaříková et al., 2014]). Hepatocarcinoma cells at the logarithmic growth stage were taken and inoculated into six-well plates with 2 × 10^4 cells/well. When the cell density is about 80%, the cell wound was scratched with pipette tips. Cells were then washed with PBS and added to the cell culture broth containing 1% serum with varying concentrations of RPDPRH (0 μM, 6.25, 12.5, and 25 μM) for 48 h. Pictures were taken at 0 and 48 h under a microscope (100×). Wound healing rate (%) = [(0 h scratch distance−48 h scratch distance)/0 h scratch distance] × 100%."}}, "data": [{"smiles": "O=C1/C(=C/c2ccc(Cl)cc2)CC(/C=C/c2ccc(Cl)cc2)(C(=O)NC2CCCCC2)N1c1ccc(F)cc1", "note": "(centres unmarked) [RPDPRH, (2E, 4E)-4-(4-chlorobenzylidene)-2-(4-chlorostyryl)-N-cyclohexyl-1-(4-fluorophenyl)-5-oxopyrrolidine-2-carboxamide]", "values": [{"measurement": "IC50", "setting": "C-33A cells", "value": 4.66, "unit": "µM"}, {"measurement": "IC50", "setting": "CaSki cells", "value": 6.42, "unit": "µM"}, {"measurement": "IC50", "setting": "HepG2 cells [1]", "value": 12.4, "unit": "µM"}, {"measurement": "IC50", "setting": "7402 cells", "value": 22.4, "unit": "µM"}, {"measurement": "expression of anti-apoptotic protein Bcl-2", "setting": "Bcl-2", "value": "decrease"}, {"measurement": "wound healing rate", "setting": "HepG2 cells [2]; HepG2, 25 μM, vs DMSO control, p < 0.001", "value": "significantly decreased"}, {"measurement": "wound healing rate", "setting": "HepG2 cells [2]; HepG2, 6.25, 12.5 and 25 μM", "value": "significantly reduced"}, {"measurement": "melting point", "value": "128 to 130", "unit": "°C"}]}]}
